Data published in ChEMBL document CHEMBL1201862, “PubChem BioAssay data set” (2004).
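Dose response: 5 concentrations. Exposure: 48 h. Format: 96-well plates. Endpoint: linear interpolation; highest concentration if not reached. At the GI50, growth is halved.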 Active and inactive are the calls of the source. Rule as the data show it: active = GI50 up to about 1.1 µM and inactive = higher.

How the values were obtained:
Assay in all cases: inhibition of tumour cell growth, NCI panel, 48 h
NCI-H226 = test system: NCI-H226
MOLT-4 = test system: MOLT-4
IGROV-1 = test system: IGROV-1
KM12 = test system: KM12
HOP-62 = test system: HOP-62
786-0 = test system: 786-0
NCI-H460 = test system: NCI-H460
A498 = test system: A498
RPMI-8226 = test system: RPMI-8226
SNB-75 = test system: SNB-75
UACC-62 = test system: UACC-62
NCI-H23 = test system: NCI-H23
ACHN = test system: ACHN
HT-29 = test system: HT-29
RXF 393 = test system: RXF 393
SK-MEL-2 = test system: SK-MEL-2
U-251 = test system: U-251
SR = test system: SR

Measured: GI50

CC1(C)C2CCC13C(=O)C1OC3(C2)C2C(=O)N(c3ccccc3)C(=O)C12 (stereo unspecified)
inactive: NCI-H226 > 100 µM | MOLT-4 > 100 µM | IGROV-1 > 100 µM | KM12 > 100 µM | HOP-62 > 100 µM | 786-0 > 100 µM | NCI-H460 > 100 µM | A498 > 100 µM | RPMI-8226 > 100 µM | SNB-75 > 100 µM | UACC-62 > 100 µM | NCI-H23 38.1 µM | ACHN > 100 µM | HT-29 51.4 µM | RXF 393 > 100 µM | SK-MEL-2 > 100 µM | U-251 > 100 µM

N=C(c1ccccc1)N1CCCCC1
inactive: NCI-H226 > 100 µM | KM12 > 100 µM | HOP-62 > 100 µM | 786-0 > 100 µM | NCI-H460 > 100 µM | SNB-75 > 100 µM | NCI-H23 > 100 µM | HT-29 > 100 µM | RXF 393 > 100 µM | SR > 100 µM | SK-MEL-2 > 100 µM | U-251 > 100 µM

CC(C)(C)c1ccccc1NS(=O)(=O)c1ccccc1
inactive: NCI-H226 21.9 µM | MOLT-4 38 µM | IGROV-1 > 100 µM | KM12 65 µM | HOP-62 > 100 µM | 786-0 > 100 µM | NCI-H460 92 µM | A498 > 100 µM | RPMI-8226 60.8 µM | SNB-75 > 100 µM | UACC-62 > 100 µM | NCI-H23 > 100 µM | ACHN > 100 µM | HT-29 66.7 µM | RXF 393 76.7 µM | SK-MEL-2 > 100 µM | U-251 > 100 µM

COc1cc(Nc2cnc3ccc(N)cc3n2)cc(OC)c1OC
inactive: NCI-H226 > 100 µM | MOLT-4 49 µM | IGROV-1 80.4 µM | KM12 39.4 µM | HOP-62 29.2 µM | 786-0 > 100 µM | NCI-H460 69.3 µM | A498 > 100 µM | RPMI-8226 16.6 µM | SNB-75 49.3 µM | UACC-62 69.3 µM | NCI-H23 98.6 µM | ACHN > 100 µM | HT-29 48.9 µM | RXF 393 45.3 µM | SK-MEL-2 > 100 µM | U-251 > 100 µM

N/N=C1\c2ccccc2C2/C(=N\N)c3ccccc3C12 (stereo unspecified)
inactive: MOLT-4 > 100 µM | IGROV-1 > 100 µM | KM12 > 100 µM | 786-0 > 100 µM | NCI-H460 > 100 µM | RPMI-8226 > 100 µM | SNB-75 56.1 µM | UACC-62 > 100 µM | NCI-H23 > 100 µM | ACHN > 100 µM | HT-29 > 100 µM | RXF 393 > 100 µM | SK-MEL-2 > 100 µM | U-251 > 100 µM

CCC(C)CNC1=C(NC(C)=O)C(=O)c2ccccc2C1=O (stereo unspecified)
inactive: NCI-H226 > 100 µM | MOLT-4 > 100 µM | IGROV-1 > 100 µM | KM12 > 100 µM | HOP-62 > 100 µM | 786-0 > 100 µM | NCI-H460 94.6 µM | SNB-75 > 100 µM | UACC-62 > 100 µM | NCI-H23 67.8 µM | ACHN > 100 µM | HT-29 > 100 µM | RXF 393 > 100 µM | SR > 100 µM | SK-MEL-2 > 100 µM | U-251 > 100 µM

CCCCCC[C@H]1CC(=O)C2CCCC[C@@]23CC[C@H](CCl)N13.CCCCCC[C@H]1CC(=O)C2CCCC[C@@]23C[C@H](Cl)CN13 (stereo partly specified)
inactive: MOLT-4 10 µM | IGROV-1 > 100 µM | KM12 49.8 µM | HOP-62 91.6 µM | 786-0 > 100 µM | NCI-H460 98.2 µM | A498 > 100 µM | RPMI-8226 20.7 µM | SNB-75 27.8 µM | UACC-62 48.1 µM | NCI-H23 47.5 µM | ACHN 53.5 µM | HT-29 61.9 µM | SK-MEL-2 > 100 µM | U-251 29.6 µM

N#CCCN(CCC#N)c1ccc(/C=C2\N=C(COc3ccc(Cl)cc3Cl)OC2=O)cc1
inactive: MOLT-4 > 100 µM | IGROV-1 > 100 µM | KM12 > 100 µM | HOP-62 > 100 µM | 786-0 > 100 µM | NCI-H460 > 100 µM | A498 > 100 µM | RPMI-8226 > 100 µM | SNB-75 71.8 µM | UACC-62 > 100 µM | NCI-H23 > 100 µM | HT-29 > 100 µM | SK-MEL-2 > 100 µM | U-251 > 100 µM

CN(C)c1ccc(/C=C(\C#N)C(=O)c2ccccc2)cc1Br
inactive: NCI-H226 39.3 µM | MOLT-4 36.2 µM | KM12 > 100 µM | HOP-62 20.8 µM | 786-0 > 100 µM | NCI-H460 > 100 µM | RPMI-8226 25.8 µM | SNB-75 41.8 µM | UACC-62 51.3 µM | NCI-H23 > 100 µM | ACHN > 100 µM | HT-29 > 100 µM | RXF 393 14.6 µM | SR 38.5 µM | SK-MEL-2 > 100 µM | U-251 > 100 µM

CN(C)c1nnnn1-c1c(N)n(C)c(=O)n(C)c1=O
inactive: NCI-H226 > 100 µM | MOLT-4 > 100 µM | IGROV-1 > 100 µM | KM12 > 100 µM | HOP-62 > 100 µM | 786-0 > 100 µM | NCI-H460 > 100 µM | A498 > 100 µM | RPMI-8226 > 100 µM | SNB-75 > 100 µM | UACC-62 > 100 µM | NCI-H23 > 100 µM | ACHN > 100 µM | HT-29 > 100 µM | SK-MEL-2 > 100 µM | U-251 > 100 µM

O=C1[C@H]2ON(c3ccccc3)C(c3ccccc3Cl)[C@H]2C(=O)N1c1ccc(Cc2ccc(N3C(=O)[C@@H]4ON(c5ccccc5)C(c5ccccc5Cl)[C@@H]4C3=O)cc2)cc1 (stereo partly specified)
inactive: NCI-H226 > 100 µM | MOLT-4 > 100 µM | IGROV-1 > 100 µM | KM12 > 100 µM | HOP-62 > 100 µM | 786-0 > 100 µM | NCI-H460 > 100 µM | A498 > 100 µM | RPMI-8226 > 100 µM | SNB-75 > 100 µM | UACC-62 > 100 µM | NCI-H23 > 100 µM | ACHN > 100 µM | HT-29 > 100 µM | SR > 100 µM | SK-MEL-2 > 100 µM | U-251 > 100 µM

CCOc1ccccc1/N=N/c1ccc2oc(=O)c(C(=O)Nc3cccc(C)c3)cc2c1
inactive: MOLT-4 19.9 µM | IGROV-1 39.5 µM | KM12 30 µM | HOP-62 49.1 µM | 786-0 34 µM | A498 42.5 µM | RPMI-8226 24.5 µM | SNB-75 37 µM | UACC-62 26.2 µM | NCI-H23 21.4 µM | HT-29 36.2 µM | SK-MEL-2 19.8 µM | U-251 25.6 µM

C[C@]12CCC(=O)C[C@H]1CCC(O)[C@@H]2Br (stereo partly specified)
inactive: NCI-H226 > 100 µM | MOLT-4 > 100 µM | IGROV-1 > 100 µM | KM12 > 100 µM | HOP-62 > 100 µM | 786-0 > 100 µM | NCI-H460 > 100 µM | A498 > 100 µM | RPMI-8226 > 100 µM | SNB-75 > 100 µM | UACC-62 > 100 µM | NCI-H23 > 100 µM | ACHN > 100 µM | HT-29 > 100 µM | SR > 100 µM | SK-MEL-2 > 100 µM | U-251 > 100 µM
